According to publication PMC8587756, “Spirostanol Saponins from Flowers of Allium Porrum and Related Compounds Indicating Cytotoxic Activity and Affecting Nitric Oxide Production Inhibitory Effect in Peritoneal Macrophages” (Molecules, 2021):
Read-outs that look alike come from different tables or passages of the source.

What was measured:
[1] = system: murine leukemia cells P388; set-up: method as in PMID 9836426; conditions: cancer murine leukemia cells P388; cited from earlier work
mouse peritoneal cells = assay: Cell viability / cytotoxicity, LDH assay in mouse peritoneal cells; assay type: cell-based
Procedure: (§1) Biological effects of studied compounds were evaluated in vitro, using mouse (C57BL6, Charles River Deutschland, Sulzfeld, Germany) peritoneal cells. Animals, killed by cervical dislocation, were i.p. injected with 8 mL of sterile saline. Pooled peritoneal cells collected from mice (n = 4–6 in individual experiments) were washed, re-suspended in culture medium, and seeded into 96-well round-bottom microplates (Costar, Corning, NY, USA) in 100-μL volumes, 2 × 10^5 cells/well. All experimental variants were run in duplicate. […] Cultures were maintained at 37 °C, 5% CO2 in humidified incubator (Sanyo Electric Biomedical, Osaka, Japan).
(§2) Viability of cells was analysed using the LDH (lactate dehydrogenase) assay. It is based on the determination of lactate dehydrogenase activity released from the cytosol of damaged cells into cell supernatant. The supernatants were harvested at the interval of 22 h of culture, diluted 1:1, and mixed with an aliquot of the LDH kit (Sigma-Aldrich, St. Louis, MO, USA). After 30-min incubation in the dark at ambient temperature, the reaction was stopped with 2 N HCl. […] Triton (1%) was used to induce 100% cell death. All control and experimental variants were run in quadruplicate.

[2] = as above; assay type: cell-based
Procedure: as §1, §2

[3] = system: NO production in mouse peritoneal cells; assay: Nitric oxide production induced by LPS and IFN-γ in mouse peritoneal cells (Griess reagent); assay type: cell-based; conditions: for effect on production of NO (in words): LPS + IFN-γ, 24 h, Figure 3B; for inhibitory effects (in words): tested up to 25 µM; for IC50: LPS 0.1 ng/mL + IFN-γ 5 ng/mL, nitrites at 24 h, read-out: Nitric Oxide, IC50 (95% Limits of Confidence)
Procedure: Biological effects of studied compounds were evaluated in vitro, using mouse (C57BL6, Charles River Deutschland, Sulzfeld, Germany) peritoneal cells. Animals, killed by cervical dislocation, were i.p. injected with 8 mL of sterile saline. Pooled peritoneal cells collected from mice (n = 4–6 in individual experiments) were washed, re-suspended in culture medium, and seeded into 96-well round-bottom microplates (Costar, Corning, NY, USA) in 100-μL volumes, 2 × 10^5 cells/well. All experimental variants were run in duplicate. Complete RPMI-1640 culture medium (Sigma-Aldrich, St. Louis, MO, USA) contained 10% heat-inactivated foetal bovine serum, 2 mM L-glutamine, 50 μg/mL gentamicin, and 5 × 10^−5 M 2-mercaptoethanol (all Sigma-Aldrich). Cultures were maintained at 37 °C, 5% CO2 in humidified incubator (Sanyo Electric Biomedical, Osaka, Japan). The Institution Animal Ethics Committee (No. 13/2006) approved the animal welfare and all experimental procedures.
High output NO production was induced by mixture of lipopolysaccharide (LPS from E. coli 0111:B4, 0.1 ng/mL; Sigma) and murine recombinant interferon-γ (IFN-γ, 5 ng/mL; R&D Systems, Minneapolis, MN, USA) in mouse peritoneal cells. Tested compounds were applied concomitantly with these priming stimuli. The concentration of nitrites in supernatants of cells was assayed at the interval of 24 h. It was detected in individual, cell-free samples (50 μL) incubated 5 min at ambient temperature with an aliquot of a Griess reagent (1% sulphanilamide/0.1% naphtylendiamine/2.5% H3PO4). The absorbance at 540 nm was recorded using a microplate spectrophotometer (Tecan, Grödig, Austria). A nitrite calibration curve was used to convert absorbance to μM nitrite.
Estimates of 50% inhibitory concentrations of compounds (IC50, and CC50), correlation analysis, and graphical presentation of data were done using the Prism program (GraphPad Software, San Diego, CA, USA).

[4] = system: murine monocyte/macrophage cell line J-774; set-up: method as in PMID 9358643; conditions: 24 h, MTT assay; cited from earlier work
[5] = system: RAW 246.7 macrophages and lymphocytes; set-up: method as in PMID 26329920; conditions: different concentrations, 72 h, MTT assay; cited from earlier work
[6] = mouse peritoneal cells, LDH assay, 24 h, Figure 3A
[7] = C57BL6, mouse peritoneal cells, LDH assay, cultured 24 h (supernatants harvested at 22 h), read-out: Cytotoxicity CC50 (95% Limits of Confidence)

What does the source list for `C[C@@H]1CC[C@@]2(OC1)O[C@H]1CC3C4C[C@@H](O)C5C[C@@H](O[C@@H]6O[C@H](CO)[C@H](O[C@@H]7O[C@H](CO)[C@@H](O)[C@H](O[C@@H]8OC[C@@H](O)[C@H](O)[C@H]8O)[C@H]7O[C@@H]7O[C@H](CO)[C@@H](O)[C@H](O)[C@H]7O)[C@H](O)[C@H]6O)[C@H](O)C[C@]5(C)C4CC[C@]3(C)C1[C@@H]2C` (stereo partly shown) [Compound 1, aginoside]?
cytotoxicity IC50 [1]: 2.1 µg/mL; cytotoxic effects in model immune cells (in words) (mouse peritoneal cells): strong cytotoxic effects; concentration at onset of cell viability decline (mouse peritoneal cells; [6]): approximately 4 µM; CC50 at 22 h ([2]; C57BL6, mouse): 11.1 µM; effect on production of NO (in words) [3]: inhibited the production of NO

What does the source list for `C[C@@H]1CC[C@@]2(OC1)O[C@H]1CC3C4CCC5C[C@@H](O[C@@H]6O[C@H](CO)[C@H](O[C@@H]7O[C@H](CO)[C@@H](O)[C@H](O[C@@H]8OC[C@@H](O)[C@H](O)[C@H]8O)[C@H]7O[C@@H]7O[C@H](CO)[C@@H](O)[C@H](O)[C@H]7O)[C@H](O)[C@H]6O)[C@H](O)C[C@]5(C)C4CC[C@]3(C)C1[C@@H]2C` (stereo partly shown) [Compound 2, 6-deoxy-aginoside]?
cytotoxic effects in model immune cells (in words) (mouse peritoneal cells): strong cytotoxic effects; concentration at onset of cell viability decline (mouse peritoneal cells; [6]): approximately 4 µM; CC50 at 22 h ([2]; C57BL6, mouse): 5.7 µM; effect on production of NO (in words) [3]: inhibited the production of NO

Which results are given for `CC1CCC2(OC1)OC1CC3C4CC(O)C5CC(OC6OC(CO)C(OC7OC(CO)C(O)C(OC8OCC(O)C(O)C8O)C7OC7OC(CO)C(O)C(OC8OC(CO)C(O)C(O)C8O)C7O)C(O)C6O)C(O)CC5(C)C4CCC3(C)C1C2C` (stereo not shown) [Compound 3]?
cytotoxic effects in model immune cells (in words) (mouse peritoneal cells): strong cytotoxic effects; concentration at onset of cell viability decline (mouse peritoneal cells; [6]): approximately 4 µM; CC50 at 22 h ([2]; C57BL6, mouse): 7.21 µM; effect on production of NO (in words) [3]: inhibited the production of NO

What does the source list for `CC1CC[C@@]2(OC1)O[C@H]1C[C@H]3[C@@H]4C[C@@H](O)C5C[C@@H](O)[C@H](O)C[C@]5(C)[C@H]4CC[C@]3(C)[C@H]1[C@@H]2C` (stereo partly drawn) [Compound 4, spirostan-2α, 3β, 6β–triol]?
CC50 at 22 h ([2]; C57BL6, mouse): > 100 µM; inhibitory effects (in words) [3]: devoid of any inhibitory effects; cytotoxicity (in words) [4]: did not show cytotoxicity

Which “concentration at onset of cell viability decline” value (mouse peritoneal cells; [6]) does the source give for `C[C@@H]1CC[C@@]2(OC1)O[C@H]1[C@@H](O)[C@H]3[C@@H]4CC[C@H]5C[C@@H](O[C@@H]6O[C@H](CO)[C@H](O[C@@H]7O[C@H](CO)[C@@H](O)[C@H](O[C@@H]8OC[C@@H](O)[C@H](O)[C@H]8O)[C@H]7O[C@@H]7O[C@H](CO)[C@H](O)[C@H](O[C@@H]8O[C@H](CO)[C@@H](O)[C@H](O)[C@H]8O)[C@H]7O)[C@H](O)[C@H]6O)[C@H](O)C[C@]5(C)[C@H]4CC[C@]3(C)[C@H]1[C@@H]2C` [Compound 5, digitonin, reference compound] here?
Its value is “approximately 4 µM”.

And the “cytotoxic effects in model immune cells (in words)” value (mouse peritoneal cells; [6])?
The value was “strong cytotoxic effects”.

What about the CC50 at 22 h [2, 7] of the same compound?
Its CC50 at 22 h is 5.83 µM.

What about the IC50 [3] of the same compound?
The IC50 was 5.52 µM.

And the “effect on production of NO (in words)” value [3]?
Its value is “inhibited the production of NO”.

What does the source list for `C[C@@H]1CC[C@@]2(OC1)O[C@H]1C[C@H]3[C@@H]4CC=C5C[C@@H](O)CC[C@]5(C)[C@H]4CC[C@]3(C)[C@H]1[C@@H]2C` [Compound 7, diosgenin]?
CC50 at 22 h [2, 7]: > 100 µM; IC50 [3]: > 100 µM; inhibitory effects (in words) [3]: devoid of any inhibitory effects; cytotoxicity (in words) [5]: No changes in cytotoxicity

With `C[C@@H]1CC[C@@]2(OC1)O[C@H]1C[C@H]3[C@@H]4CC=C5C[C@@H](O[C@@H]6O[C@H](CO)[C@@H](O[C@@H]7O[C@@H](C)[C@H](O)[C@@H](O)[C@H]7O)[C@H](O)[C@H]6O[C@@H]6O[C@@H](C)[C@H](O)[C@@H](O)[C@H]6O)CC[C@]5(C)[C@H]4CC[C@]3(C)[C@H]1[C@@H]2C` [dioscin, reference compound] as the compound, how does the “cytotoxicity IC50” value [1] read?
Its value is 0.092 µg/mL.

For “tomatonin [Compound 6, reference compound]”, which “concentration at onset of cell viability decline” value (mouse peritoneal cells; [6]) is on record?
Its value is “approximately 4 µM”.

And the “cytotoxic effects in model immune cells (in words)” value (mouse peritoneal cells; [6])?
The value was “strong cytotoxic effects”.

And the CC50 (mouse peritoneal cells; mouse peritoneal cells, LDH assay, cultured 24 h (supernatants harvested at 22 h), read-out: Cytotoxicity CC50 (95% Limits of Confidence))?
Its CC50 is 9.9 µM.

What about the IC50 [3] of the same compound?
Its IC50 is 7.19 µM.

And the “effect on production of NO (in words)” value [3]?
The value was “inhibited the production of NO”.
